Like-named read-outs stand apart in the source and are kept apart here.
Tests used:
[1] = test system: C. auris; assay: Planktonic MIC, CLSI guidelines; assay type: cell-based, Candida auris; conditions: Candidozyma auris
Description: (§1) Minimum inhibitory concentrations were determined using CLSI guidelines (Beattie & Krysan, 2021; Wiederhold, 2021). All yeasts were cultured overnight in 3 mL YPD at 30° C., then washed twice in sterile PBS. Two-fold serial dilutions of each compound were prepared in RMPI+MOPS pH 7 (Gibco RPMI 1640 with L-glutamine [11875-093] and 0.165M 352 MOPS), then 1×10^3 cells were added per well. Plates were incubated at 37° C. for 24 hours (C. albicans and S. cerevisiae) or 72 hours (C. neoformans). For A. fumigatus and F. oxysporum wells were inoculated with 1.25×10^4 conidia. Plates were incubated at 37° C. for 48 hours for A. fumigatus and 72 hours for F. oxysporum. All MICs are defined as the well with complete growth inhibition as determined by visual inspection with the exception of MICs of fluconazole against C. albicans where the MIC is defined as at least 50% reduction in growth compared to the control.

[2] = test system: C. albicans; assay: Planktonic MIC, CLSI guidelines; assay type: cell-based, Candida albicans
Description: as §1

[3] = test system: C. neoformans; assay: Planktonic MIC, CLSI guidelines; assay type: cell-based; conditions: Cryptococcus neoformans
Description: as §1

[4] = test system: A. fumigatus; assay: Planktonic MIC, CLSI guidelines; assay type: cell-based; conditions: Aspergillus fumigatus, read-out: MIC
Description: as §1

[5] = test system: F. oxysporum; assay: Planktonic MIC, CLSI guidelines; assay type: cell-based; conditions: Fusarium oxysporum; strain DUMC Fo
Description: as §1

[6] = test system: C. glabrata; assay: Planktonic MIC, CLSI guidelines; assay type: cell-based; conditions: Nakaseomyces glabratus; strain KK2001
Description: as §1

[7] = test system: red blood cells; assay: Red blood cell lysis assay; assay type: cell-based, sheep; conditions: 2 h, normalized to max lysis by triton-x
Description: Hemolysis assays were performed with defibrinated sheep's blood (Lampire, Cat #7239001). Blood was washed three times with PBS then resuspended to about 50% hematocrit in PBS. A two-fold dilution series of the compounds in 200 μL PBS with equal DMSO concentration across the series, then red blood cells were added with a final concentration of 2% hematocrit. Cells were incubated at RT for 2 hours in a v-bottom microtiter plate, then plates were spun down and supernatant was transferred to a flat bottom microtiter plate for absorbance measurement at 570 nm. Compounds were tested in technical triplicate in at least two independent assays performed on different days.

[8] = test system: S. aureus; assay: Antibacterial MIC; assay type: cell-based; conditions: Staphylococcus aureus; strain Newman
[9] = test system: C. albicans; assay: Checkerboard assay with clinical antifungals (FICI); assay type: cell-based, Candida albicans; conditions: with fluconazole
Description: To determine if compounds interacted with clinically used antifungal drugs, checkerboard assays were performed and fractional inhibitory concentration indices were determined. […] The FICI for compound B and fluconazole is 8.25 due to the 8-fold increase in fluconazole concentration in the combination; however, the concentration of compound B at FIC is reduced by 4-fold relative to compound B as a single agent (Table 3).

Structure (SMILES): Nc1cc[n+](CC(=O)c2ccc3c(c2)OC(c2ccccc2)(c2ccccc2)O3)cc1.[Cl-] [Compound A]
- MIC ([1]; strain 0381, drug susceptible): 8 µg/mL
- MIC ([1]; strain 0390, multi-drug resistant): 2 µg/mL
- MIC ([2]; Candida albicans, strain SC5314, read-out: MIC): 4 µg/mL
- MIC ([2]; Candida albicans, strain TWO #15, fluconazole-resistant, read-out: MIC): 4 µg/mL
- MIC ([2]; strain TWO #17, fluconazole-resistant): 4 µg/mL
- MIC ([3]; strain DUMC 118.00): 4 µg/mL
- MIC ([3]; strain DUMC 122.01): 4 µg/mL
- MIC ([3]; strain H99): 4 µg/mL
- MIC ([4]; strain AF293): 2 µg/mL
- MIC ([4]; strain CEA10): 32 µg/mL
- MIC ([4]; strain CFF S001): 64 µg/mL
- MIC ([4]; strain CFF S003): 4 µg/mL
- MIC ([4]; strain CFF S007): 64 µg/mL
- MIC ([4]; strain CFF S008): 64 µg/mL
- MIC ([4]; strain CFF S014): 8 µg/mL
- MIC ([4]; strain CFF S029): 4 µg/mL
- MIC ([4]; strain Cas^R): 32 µg/mL
- MIC ([4]; strain SPF98): 64 µg/mL
- MIC [5]: 16 µg/mL
- MIC [6]: 4 µg/mL
- red blood cell lysis LD50 [7]: 26.9 µg/mL
- MIC [8]: 32 µg/mL
- interaction with clinical antifungal [9]: antagonistic

Source: patent publication US20260274828A1, “BROAD SPECTRUM ANTIFUNGAL KETO-ALKYL-PYRIDINIUM COMPOUNDS” (priority 2023, published 2026)
